Structures are written as SMILES. Where a name gives a salt, the structure may show the parent alone.

`O=C(NC12CC3CC(CC(C3)C1)C2)c1cnn2c1NC(c1cccc(Cl)c1)CC2C(F)(F)F` (stereo not drawn) [Example 282, N-(1-adamantyl)-5-(3-chlorophenyl)-7-(trifluoromethyl)-4,5,6,7-tetrahydropyrazolo[1,5-a]pyrimidine-3-carboxamide] displayed a melting point of 246 to 247 °C. Under `CCC1(NC(=O)c2cnn3c2NC(c2ccccc2)CC3(C)C)CCCC1` (stereo not drawn) (as salt: HCl) [Example 588, N-(1-ethylcyclopentyl)-7,7-dimethyl-5-phenyl-4,5,6,7-tetrahydropyrazolo[1,5-a]pyrimidine-3-carboxamide] stands 140 to 142 °C; under `O=C(NCC(=O)c1cccc2ccccc12)c1cnn2c1N[C@H](c1ccccc1)C[C@@H]2C(F)(F)F` (stereo in doubt) [Example 286, N-(2-(1-naphthyl)-2-oxoethyl)-5-phenyl-7-(trifluoromethyl)-4,5,6,7-tetrahydropyrazolo[1,5-a]pyrimidine-3-carboxamide], 141 to 142 °C; under `O=C(O)c1cnn2c1NC(c1cccc(Cl)c1)CC2C(F)(F)F` (stereo not drawn) [Example 33, 5-(3-chlorophenyl)-7-(trifluoromethyl)-4,5,6,7-tetrahydropyrazolo[1,5-a]pyrimidine-3-carboxylic acid], 194 to 195 °C. Under `CCC(CC)(NC(=O)c1cnn2c1NC(c1ccccc1)CC2(C)C)c1ccc(Cl)c(Cl)c1` (stereo not drawn) [Example 666, N-(1-(3,4-dichlorophenyl)-1-ethylpropyl)-7,7-dimethyl-5-phenyl-4,5,6,7-tetrahydropyrazolo[1,5-a]pyrimidine-3-carboxamide] stands 156 to 157 °C. Under `CCC(CC)(NC(=O)c1cnn2c1N[C@@H](c1ccccc1)CC2(C)C)c1ccc(C(C)(C)C)cc1` (as salt: HCl) [Example 1052, (5R)-N-(1-(4-tert-butylphenyl)-1-ethylpropyl)-7,7-dimethyl-5-phenyl-4,5,6,7-tetrahydropyrazolo[1,5-a]pyrimidine-3-carboxamide] stands 139 to 140 °C. Take `CCC(CC)(NC(=O)c1cnn2c1NC(c1ccccc1)CC2(C)C)c1ccc(OCC(=O)O)cc1` (stereo not drawn) [Example 731, (4-(1-(((7,7-dimethyl-5-phenyl-4,5,6,7-tetrahydropyrazolo[1,5-a]pyrimidin-3-yl)carbonyl)amino)-1-ethylpropyl)phenoxy)acetic acid]: the melting point lay within 213 to 214 °C. Under `CCC(CC)(NC(=O)c1c(C)nn2c1NC(c1cccs1)CC2(C)C)c1ccccc1` (stereo not drawn) (as salt: HCl) [Example 958, N-(1-ethyl-1-phenylpropyl)-2,7,7-trimethyl-5-(2-thienyl)-4,5,6,7-tetrahydropyrazolo[1,5-a]pyrimidine-3-carboxamide] stands 171 to 172 °C; under `CCCCOC(=O)c1ccc(C(CC)(CC)NC(=O)c2cnn3c2NC(c2ccccc2)CC3(C)C)cc1` (stereo not drawn) [Example 757, butyl 4-(1-(((7,7-dimethyl-5-phenyl-4,5,6,7-tetrahydropyrazolo[1,5-a]pyrimidin-3-yl)carbonyl)amino)-1-ethylpropyl)benzoate], 139 to 140 °C.

Regarding `CCC(CC)(Cc1ccc(C)cc1)NC(=O)c1cnn2c1NC(c1ccccc1)CC2(C)C` (stereo not drawn) [Example 703, N-(1-ethyl-1-(4-methylbenzyl)propyl)-7,7-dimethyl-5-phenyl-4,5,6,7-tetrahydropyrazolo[1,5-a]pyrimidine-3-carboxamide], the melting point lay in the range of 150 to 151 °C.

Regarding `CCC(CC)(NC(=O)c1c(C)nn2c1N[C@@H](c1ccccc1)CC2(C)C)c1ccc(C(=O)O)cc1` [Example 1076, (5R)-4-(1-ethyl-1-(((-2,7,7-trimethyl-5-phenyl-4,5,6,7-tetrahydropyrazolo[1,5-a]pyrimidin-3-yl)carbonyl)amino)propyl) benzoic acid], the melting point was in the range of 234 to 236 °C.

In turn, `CC(NC(=O)c1cnn2c1NC(c1ccc3ccccc3c1)CC2C(F)(F)F)C1C2CC3CC(C2)CC1C3` (stereo not drawn) [Example 91, N-(1-(2-adamantyl)ethyl)-5-(2-naphthyl)-7-(trifluoromethyl)-4,5,6,7-tetrahydropyrazolo[1,5-a]pyrimidine-3-carboxamide] returned a melting point of 94 to 95 °C.

As to `Cc1nn2c(c1C(=O)O)NC(c1cccs1)CC2(C)C` (stereo not drawn) [Example 951, 2,7,7-trimethyl-5-(2-thienyl)-4,5,6,7-tetrahydropyrazolo[1,5-a]pyrimidine-3-carboxylic acid], the melting point fell in the range of 186 to 187 °C.

`CCC(CC)(NC(=O)c1c(C)nn2c1N[C@@H](c1ccccc1)CC2(C)C)c1ccc(N(C)C)cc1` (as salt: HCl) [Example 1071, (5R)-N-(1-(4-(dimethylamino)phenyl)-1-ethylpropyl)-2,7,7-trimethyl-5-phenyl-4,5,6,7-tetrahydropyrazolo[1,5-a]pyrimidine-3-carboxamide]: the melting point lay in the range of 141 to 142 °C. In the case of `CCOC(=O)c1cnn2c1NC(c1ccc3ccccc3c1)CC2C(F)(F)F` (stereo not drawn) [Example 2, ethyl 5-(2-naphthyl)-7-(trifluoromethyl)-4,5,6,7-tetrahydropyrazolo[1,5-a]pyrimidine-3-carboxylate] it was 120 to 122 °C. Under `Cc1nn2c(c1C(=O)O)NC(c1cccc(F)c1)CC2(C)C` (stereo not drawn) [Example 945, 5-(3-fluorophenyl)-2,7,7-trimethyl-4,5,6,7-tetrahydropyrazolo[1,5-a]pyrimidine-3-carboxylic acid] stands 153 to 155 °C.

In turn, `CCC(CC)(NC(=O)c1cnn2c1NC(c1ccccc1)CC2(C)C)c1ccc(OC(C)=O)cc1` (stereo not drawn) [Example 728, 4-(1-(((7,7-dimethyl-5-phenyl-4,5,6,7-tetrahydropyrazolo[1,5-a]pyrimidin-3-yl)carbonyl)amino)-1-ethylpropyl)phenyl acetate] returned a melting point of 171 to 172 °C.

`COC(=O)C1(NC(=O)c2cnn3c2NC(c2ccccc2)CC3(C)C)CCCCC1` (stereo not drawn) [Example 624, methyl 1-(((7,7-dimethyl-5-phenyl-4,5,6,7-tetrahydropyrazolo[1,5-a]pyrimidin-3-yl)carbonyl)amino)cyclo-hexanecarboxylate] returned a melting point of 184 to 185 °C.

As for `CCC1(CC)C[C@H](OCc2ccccc2)CN1C(=O)c1cnn2c1N[C@@H](c1ccccc1)CC2(C)C` [Example 1107, (5R)-3-(((4S)-4-(benzyloxy)-2,2-diethy-1-pyrrolidinyl)carbonyl)-7,7-dimethyl-5-phenyl-4,5,6,7-tetrahydropyrazolo[1,5-a]pyrimidine], the melting point was 173 to 175 °C. Under `CCC1(NC(=O)c2cnn3c2NC(c2ccccc2)CC3(C)C)CCSCC1` (stereo not drawn) [Example 575, N-(4-ethyltetrahydro-2H-thiopyran-4-yl)-7,7-dimethyl-5-phenyl-4,5,6,7-tetrahydropyrazolo[1,5-a]pyrimidine-3-carboxamide] stands 97 to 98 °C; under `CCC(CC)(NC(=O)c1cnn2c1NC(c1ccccc1)CC2(C)C)c1ccc(I)cc1` (stereo not drawn) [Example 667, N-(1-ethyl-1-(4-iodophenyl)propyl)-7,7-dimethyl-5-phenyl-4,5,6,7-tetrahydropyrazolo[1,5-a]pyrimidine-3-carboxamide], 182 to 183 °C. The molecule `COc1ccc(C2CC(C)(C)n3ncc(C(=O)O)c3N2)cc1` (stereo not drawn) [Example 942, 5-(4-methoxyphenyl)-7,7-dimethyl-4,5,6,7-tetrahydropyrazolo[1,5-a]pyrimidine-3-carboxylic acid] showed a melting point of 196 to 197 °C. Under `COc1cccc(C2CC(C(F)(F)F)n3ncc(C(=O)NC45CC6CC(CC(C6)C4)C5)c3N2)c1` (stereo not drawn) [Example 280, N-(1-adamantyl)-5-(3-methoxyphenyl)-7-(trifluoromethyl)-4,5,6,7-tetrahydropyrazolo[1,5-a]pyrimidine-3-carboxamide] stands 211 to 212 °C; under `O=C(O)c1cnn2c1NC(c1ccc3ccccc3c1)CC2C(F)(F)F` (stereo not drawn) [Example 22, 5-(2-naphthyl)-7-(trifluoromethyl)-4,5,6,7-tetrahydropyrazolo[1,5-a]pyrimidine-3-carboxylic acid], 143 to 145 °C.

`CCC(CC)(NC(=O)c1c(C)nn2c1NC(c1ccccc1)CC2(C)C)c1ccc(SC)cc1` (stereo not drawn) [Example 833, N-(1-ethyl-1-(4-(methylthio)phenyl)propyl)-2,7,7-trimethyl-5-phenyl-4,5,6,7-tetrahydropyrazolo[1,5-a]pyrimidine-3-carboxamide] registered a melting point of 149 to 150 °C.

`CCC(CC)(NC(=O)c1cnn2c1NC(c1ccccc1)CC2(C)C)c1ccc(OCCCC(=O)O)cc1` (stereo not drawn) [Example 771, 4-(4-(1-(((7,7-dimethyl-5-phenyl-4,5,6,7-tetrahydropyrazolo[1,5-a]pyrimidin-3-yl)carbonyl)amino)-1-ethyl-propyl)phenoxy)butanoic acid]: the melting point is 170 to 171 °C. In the case of `CCC(CC)(NC(=O)c1cnn2c1NC(c1ccccc1C)CC2(C)C)c1ccc(Cl)cc1` (stereo not drawn) [Example 697, N-(1-(4-chlorophenyl)-1-ethylpropyl)-7,7-dimethyl-5-(2-methylphenyl)-4,5,6,7-tetrahydropyrazolo[1,5-a]pyrimidine-3-carboxamide] it was 143 to 145 °C; in that of `CCCC(=O)Oc1ccc(C(CC)(CC)NC(=O)c2cnn3c2NC(c2ccccc2)CC3(C)C)cc1` (stereo not drawn) [Example 760, 4-(1-(((7,7-dimethyl-5-phenyl-4,5,6,7-tetrahydropyrazolo[1,5-a]pyrimidin-3-yl)carbonyl)amino)-1-ethylpropyl)phenyl butyrate], 148 to 149 °C; in that of `CCC(CC)(Cc1ccc(Cl)cc1)NC(=O)c1cnn2c1NC(c1ccccc1)CC2(C)C` (stereo not drawn) [Example 699, N-(1-(4-chlorobenzyl)-1-ethylpropyl)-7,7-dimethyl-5-phenyl-4,5,6,7-tetrahydropyrazolo[1,5-a]pyrimidine-3-carboxamide], 156 to 157 °C.

Take `NC(=O)c1cnn2c1N[C@H](c1ccccc1)C[C@@H]2C(F)(F)F` (stereo in doubt) [Example 403, 5-phenyl-7-(trifluoromethyl)-4,5,6,7-tetrahydropyrazolo[1,5-a]pyrimidine-3-carboxamide]: the melting point lay in the range of 277 to 278 °C.

A word on the melting point: it is the temperature of the solid-liquid transition.

(Values after patent US9447100B2, “Substituted pyrazolo[1,5-A] pyrimidines as calcium receptor modulating agents” (Takeda Pharmaceutical Company Limited, priority 2002, dated 2016).)
